biological target: T1, human chemokine receptor 2 isoform B (Homo sapiens, UniProt P41597); assay: Calcium mobilization assay (FLIPR, antagonist activity against MCP-1); type: cell-based; conditions: Ca mobilisation assay, CHOK1-CCR2B-A5 cells, inhibition of calcium increase induced by 20 nM MCP-1
T1 construct: host or cells: CHOK1-CCR2B-A5 cells (CHO-K1)
T1 sequence (P41597 1-360 isoform P41597-2): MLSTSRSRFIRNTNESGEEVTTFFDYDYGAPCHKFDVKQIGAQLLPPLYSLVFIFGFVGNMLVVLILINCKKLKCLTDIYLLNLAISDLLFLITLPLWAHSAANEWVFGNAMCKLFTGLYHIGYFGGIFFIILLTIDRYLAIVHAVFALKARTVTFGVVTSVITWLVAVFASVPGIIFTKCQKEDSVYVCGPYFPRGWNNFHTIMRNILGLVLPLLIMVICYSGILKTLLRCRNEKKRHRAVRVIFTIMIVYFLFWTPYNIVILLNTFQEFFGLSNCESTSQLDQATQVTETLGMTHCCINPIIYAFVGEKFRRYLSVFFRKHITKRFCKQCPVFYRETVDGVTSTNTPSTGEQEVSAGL
Description: Calcium Mobilization Assay
CHOK1-CCR2B-A5 cells (from Euroscreen) stably overexpressing the human chemokine receptor 2 isoform B were cultured in Nutrient Hams F12 medium supplemented with 5% FBS, 100 U/ml penicillin, 100 μg/ml streptomycin, 400 μg/ml G418 and 5 μg/ml puromycin.
For the assay cells were grown overnight in 384-well black clear flat bottom polystyrene plates (Costar) at 37° C. at 5% CO2. After washing with DMEM, 20 mM Hepes, 2.5 mM probenecid, 0.1% BSA (DMEM assay buffer) cells were loaded with 4 μM Fluo-4 in the same DMEM assay buffer for 2 hours at 30° C. Excess dye was removed and cells were washed with DMEM assay buffer. 384-well compound plates were prepared with DMEM assay buffer/0.5% DMSO with or without various concentrations of test compounds. Usually compounds were tested for agonist and antagonist activity.
Test compounds were added to the assay plate and agonist activity was monitored as fluorescence for 80 seconds with a FLIPR (488 nm excitation; 510-570 nm emission; Molecular Devices). After 20-30 min. of incubation at 30° C., 20 nM MCP-1 (R&D; Roche) was added and fluorescence was monitored again for 80 seconds. Increases in intracellular calcium are reported as maximum fluorescence after agonist exposure minus basal fluorescence before exposure. Antagonist activity is indicated as inhibitor concentration required for 50% inhibition of specific calcium increases.

Row | Compound | IC50 [nM]
1 | COC(=O)C(CC(=O)N1CCC2(CC2)[C@H](O)C1)N1CCN(C(=O)/C=C/c2cccc(Cl)c2)CCC1=O (stereo partly drawn) [Example 10] | 708
2 | C[C@H]1C(=O)N(CCCC(=O)N2CCC(CO)CC2)CCN1C(=O)Nc1cccc(Cl)c1 [Example 109, (S)-4-[4-(4-Hydroxymethyl-piperidin-1-yl)-4-oxo-butyl]-2-methyl-3-oxo-piperazine-1-carboxylic acid (3-chloro-phenyl)-amide] | 4650
3 | (rac)-2-{4-[(E)-3-(3,4-Dichloro-phenyl)-acryloyl]-7-oxo-[1,4]diazepan-1-yl}-4-hydroxy-N,N-dimethyl-butyramide [Example 4] | 370
4 | COCC(CC(=O)N1CCC2(CC2)[C@H](O)C1)N1CCN(C(=O)/C=C/c2cccc(Cl)c2)CCC1=O (stereo partly drawn) [Example 13, 1-[(E)-3-(3-Chloro-phenyl)-acryloyl]-4-[(R,S)-3-((S)-4-hydroxy-6-aza-spiro[2.5]oct-6-yl)-1-methoxymethyl-3-oxo-propyl]-[1,4]diazepan-5-one] | 771
5 | C[C@H]1C(=O)N(CCCC(=O)N2CCC3(CC3)[C@H](O)C2)CCN1C(=O)Nc1cccc(OC(F)(F)F)c1 [Example 31, (S)-4-[4-((S)-4-Hydroxy-6-aza-spiro[2.5]oct-6-yl)-4-oxo-butyl]-2-methyl-3-oxo-piperazine-1-carboxylic acid (3-trifluoromethoxy-phenyl)-amide] | 51
6 | C[C@H]1C(=O)N(CC(O)CC(=O)N2CCC3(CC3)[C@H](O)C2)CCN1C(=O)Nc1ccc(OC(F)(F)F)c(Cl)c1 (stereo partly drawn) [Example 44, (S)-4-[(R,S)-2-Hydroxy-4-((S)-4-hydroxy-6-aza-spiro[2.5]oct-6-yl)-4-oxo-butyl]-2-methyl-3-oxo-piperazine-1-carboxylic acid (3-chloro-4-trifluoromethoxy-phenyl)-amide] | 2.7
7 | C[C@H]1C(=O)N(CCCC(=O)N2CC[C@H](F)[C@@H](O)C2)CCN1C(=O)Nc1cccc(Cl)c1 (mixture of isomers) [Example 115, (S)-4-[4-((3SR,4SR)-4-Fluoro-3-hydroxy-piperidin-1-yl)-4-oxo-butyl]-2-methyl-3-oxo-piperazine-1-carboxylic acid (3-chloro-phenyl)-amide] | 1360
8 | C[C@@H]1CN(CCCC(=O)N2CCC3(CC3)[C@H](O)C2)C(=O)CCN1c1ccc(Cl)c(C(F)(F)F)c1 [Example 126, (R)-1-(4-Chloro-3-trifluoromethyl-phenyl)-4-[4-((S)-4-hydroxy-6-aza-spiro[2.5]oct-6-yl)-4-oxo-butyl]-2-methyl-[1,4]diazepan-5-one] | 2670
9 | C[C@H]1C[C@H](O)CN(C(=O)CCN2CCN(C(=O)Nc3ccc(Cl)c(Cl)c3)[C@@H](C)C2=O)C1 [Example 19, (S)-4-[3-((3S,5S)-3-Hydroxy-5-methyl-piperidin-1-yl)-3-oxo-propyl]-2-methyl-3-oxo-piperazine-1-carboxylic acid (3,4-dichloro-phenyl)-amide] | 3830
10 | C[C@H]1C(=O)N(CCCC(=O)N2CCC3(CC2)CNC(=O)O3)CCN1C(=O)Nc1cccc(Cl)c1 [Example 107, (S)-2-Methyl-3-oxo-4-[4-oxo-4-(2-oxo-1-oxa-3,8-diaza-spiro[4.5]dec-8-yl)-butyl]-piperazine-1-carboxylic acid (3-chloro-phenyl)-amide] | 4870
11 | C[C@H]1C(=O)N(CCCC(=O)N2CCCC(O)C2)CCN1C(=O)Nc1cccc(Cl)c1 (mixture of isomers) [Example 112, (S)-4-[4-((RS)-3-Hydroxy-piperidin-1-yl)-4-oxo-butyl]-2-methyl-3-oxo-piperazine-1-carboxylic acid (3-chloro-phenyl)-amide] | 3200
12 | COC(=O)[C@H](CCC(=O)N1CCC2(CC2)[C@H](O)C1)N1CC(C)N(c2ccc(C(F)(F)F)c(C(F)(F)F)c2)CCC1=O (stereo partly drawn) [Example 127, (S)-2-[(R,S)-4-(3,4-Bis-trifluoromethyl-phenyl)-3-methyl-7-oxo-[1,4]diazepan-1-yl]-5-((S)-4-hydroxy-6-aza-spiro[2.5]oct-6-yl)-5-oxo-pentanoic acid methyl ester] | 191
13 | CC1(CO)CCCCN1C(=O)CCN1CCN(C(=O)/C=C/c2ccc(Cl)c(Cl)c2)CCC1=O (racemic) [Example 75, (rac)-1-[(E)-3-(3,4-Dichloro-phenyl)-acryloyl]-4-[3-(2-hydroxymethyl-2-methyl-piperidin-1-yl)-3-oxo-propyl]-[1,4]diazepan-5-one] | 969
14 | C[C@H]1C(=O)N(CCC(=O)N2CCCCC2)CCN1C(=O)Nc1ccc(Cl)c(Cl)c1 [Example 16, (S)-2-Methyl-3-oxo-4-(3-oxo-3-piperidin-1-yl-propyl)-piperazine-1-carboxylic acid (3,4-dichloro-phenyl)-amide] | 4110
15 | O=C(/C=C/c1ccc(Cl)c(Cl)c1)N1CCC(=O)N(CCC(=O)N2CCCCC2CO)CC1 (racemic) [Example 67, (rac)-1-[(E)-3-(3,4-Dichloro-phenyl)-acryloyl]-4-[3-(2-hydroxymethyl-piperidin-1-yl)-3-oxo-propyl]-[1,4]diazepan-5-one] | 1600
16 | CN(C)C(=O)[C@@H](CCO)N1CCN(C(=O)/C=C/c2cccc(Cl)c2)CCC1=O [Example 14, (R)-2-{4-[(E)-3-(3-Chloro-phenyl)-acryloyl]-7-oxo-[1,4]diazepan-1-yl}-4-hydroxy-N,N-dimethyl-butyramide] | 907
17 | O=C(CC[C@@H](CO)N1CCN(c2ccc(C(F)(F)F)c(Cl)c2)CCC1=O)N1CCC2(CC2)[C@H](O)C1 [Example 124, 1-(3-Chloro-4-trifluoromethyl-phenyl)-4-[(S)-4-((S)-4-hydroxy-6-aza-spiro[2.5]oct-6-yl)-1-hydroxymethyl-4-oxo-butyl]-[1,4]diazepan-5-one] | 8
18 | C[C@H]1C(=O)N(CCC(=O)N2CC[C@H](F)[C@@H](O)C2)CCN1C(=O)Nc1ccc(Cl)c(Cl)c1 (mixture of isomers) [Example 23, (S)-4-[3-((3SR,4SR)-4-Fluoro-3-hydroxy-piperidin-1-yl)-3-oxo-propyl]-2-methyl-3-oxo-piperazine-1-carboxylic acid (3,4-dichloro-phenyl)-amide] | 3860
19 | COC(=O)C(CC(=O)N(C)C)N1CCN(C(=O)/C=C/c2ccc(Cl)c(Cl)c2)CCC1=O (racemic) [Example 8, rac-(2-{4-[(E)-3-(3,4-Dichloro-phenyl)-acryloyl]-7-oxo-[1,4]diazepan-1-yl}-N,N-dimethyl-succinamic acid methyl ester)] | 863
20 | C[C@H]1C(=O)N(CCCC(=O)N2CCC3(CC3)[C@H](O)C2)[C@H](C(N)=O)CN1C(=O)Nc1ccc(C(F)(F)F)c(C(F)(F)F)c1 [Example 149, (3S,6S)-4-[4-((S)-4-Hydroxy-6-aza-spiro[2.5]oct-6-yl)-4-oxo-butyl]-6-methyl-5-oxo-piperazine-1,3-dicarboxylic acid 3-amide 1-[(3,4-bis-trifluoromethyl-phenyl)-amide]] | 2.2
21 | O=C1NC(=O)C2(CCN(C(=O)CCN3CCN(C(=O)/C=C/c4ccc(Cl)c(Cl)c4)CCC3=O)CC2)N1 [Example 89, 8-(3-{4-[(E)-3-(3,4-Dichloro-phenyl)-acryloyl]-7-oxo-[1,4]diazepan-1-yl}-propionyl)-1,3,8-triaza-spiro[4.5]decane-2,4-dione] | 4000
22 | COC(=O)[C@H](CCC(=O)N1CCC2(CC2)[C@H](O)C1)N1CCN(c2ccc(C(F)(F)F)c(Cl)c2)CCC1=O [Example 123, (S)-2-[4-(3-Chloro-4-trifluoromethyl-phenyl)-7-oxo-[1,4]diazepan-1-yl]-5-((S)-4-hydroxy-6-aza-spiro[2.5]oct-6-yl)-5-oxo-pentanoic acid methyl ester] | 63.1
23 | C[C@@H]1CN(CCCC(=O)N2CCC3(CC3)[C@H](O)C2)C(=O)C=CN1c1ccc(Cl)c(C(F)(F)F)c1 [Example 125, (R)-1-(4-Chloro-3-trifluoromethyl-phenyl)-4-[4-((S)-4-hydroxy-6-aza-spiro[2.5]oct-6-yl)-4-oxo-butyl]-2-methyl-1,2,3,4-tetrahydro-[1,4]diazepin-5-one] | 2750
24 | C[C@H]1C(=O)N(C[C@@H](O)CC(=O)N2CCC3(CC3)[C@H](O)C2)CCN1C(=O)Nc1ccc(C(F)(F)F)c(C(F)(F)F)c1 [Example 48, (S)-4-[(S)-2-Hydroxy-4-((S)-4-hydroxy-6-aza-spiro[2.5]oct-6-yl)-4-oxo-butyl]-2-methyl-3-oxo-piperazine-1-carboxylic acid (3,4-bis-trifluoromethyl-phenyl)-amide] | 2.4

— patent US8445674B2, “Heterocyclyl compounds” (Hoffmann-La Roche Inc, priority 2009, dated 2013)
